Laboratory results from patent US12310975B2, “Modulators of BCL6 proteolysis and associated methods of use” (Arvinas Operations, Inc., priority 2019, dated 2025).

Assays:
BCL6 [1] = target: T1, BCL6 (Homo sapiens (Human), UniProt P41182); experiment: BCL6 TR-FRET assay (BCL6-Avitag-Biotin / BCoR-Cy5 peptide); assay type: binding
Procedure, shortened: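 TR-FRET displacement assay: biotinylated His-SUMO-BCL6-Avitag (2 nM) pre-incubated 30 min at room temperature with compound (12-point 3-fold titration), then BCoR-Cy5 peptide (100 nM) and Eu-streptavidin (2 nM) added. Buffer: 50 mM HEPES pH 7.5, 125 mM NaCl, 0.01% Triton X, glutathione or DTT, 0.03% BSA. Read after 2 h.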

BCL6 [2] = target: T1, BCL6; experiment: Immunofluorescence high content imaging of BCL6 degradation in T47D cells; assay type: cell-based; settings: for Dmax: T47D
Procedure, shortened: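 Read-out is BCL6 immunofluorescence quantified by high-content imaging (10×, 4 fields per well) of T47D breast cancer cells. Cells were exposed for 3 days to degrader in an 11-point, 3-fold serial dilution reaching a final top concentration of 0.1 or 1 μM.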

Row | SMILES | IC50 (BCL6 [1]; read-out: IC50) [nM] | Dmax (BCL6 [2]) [%] | other results
1 | CNC(=O)COc1cc2cc(Nc3nc(N4CCC(N5CCC6(CCN(c7cccc8c7C(=O)N(C7CCC(=O)NC7=O)C8=O)CC6)C5)CC4)ncc3Cl)ccc2n(C(C)C)c1=O (stereo not shown) [compound 527, 2-[(6-{[5-chloro-2-(4-{8-[2-(2,6-dioxopiperidin-3-yl)-1,3-dioxo-2,3-dihydro-1H-isoindol-4-yl]-2,8-diazaspiro[4.5]decan-2-yl}piperidin-1-yl)pyrimidin-4-yl]amino}-2-oxo-1-(propan-2-yl)-1,2-dihydroquinolin-3-yl)oxy]-N-methylacetamide] | < 10 | 50 to 70 | –
2 | CNC(=O)[C@@H](C)Oc1cc2cc(Nc3nc(N4CCC(CN5CCN(c6ccc7c(c6)C(=O)N([C@H]6CCC(=O)NC6=O)C7=O)CC5)CC4)ncc3Cl)ccc2n(C)c1=O [compound 210, (R)-2-((6-((5-chloro-2-(4-((4-(2-((S)-2,6-dioxopiperidin-3-yl)-1,3-dioxoisoindolin-5-yl)piperazin-1-yl)methyl)piperidin-1-yl)pyrimidin-4-yl)amino)-1-methyl-2-oxo-1,2-dihydroquinolin-3-yl)oxy)-N-methylpropanamide] | – | – | EC50 (BCL6 [1]): 10 to 50 nM; IC50 (BCL6 [2]): ≥ 100 nM
3 | CNC(=O)COc1cc2cc(Nc3nc(N4CCC(CN5CCN(c6ccc7c(c6)CN(C6CCC(=O)NC6=O)C7=O)CC5)CC4)ncc3Cl)ccc2n(C)c1=O (stereo not shown) [compound 151, 2-((6-((5-chloro-2-(4-((4-(2-(2,6-dioxopiperidin-3-yl)-1-oxoisoindolin-5-yl)piperazin-1-yl)methyl)piperidin-1-yl)pyrimidin-4-yl)amino)-1-methyl-2-oxo-1,2-dihydroquinolin-3-yl)oxy)-N-methylacetamide] | – | – | IC50 (BCL6 [1]; class symbols A-D, read-out: IC50 (nM)***): < 10 nM; Dmax (BCL6 [2]; maximum, class symbols A-C): 50 to 70%; DC50 (BCL6 [2]; class symbols A-D, read-out: EC50 (nM)*): 10 to 50 nM
4 | CNC(=O)COc1cc2cc(Nc3nc(N4CCC(CN5CCC(c6cc(OC)cc(C(=O)NC7CCC(=O)NC7=O)c6F)CC5)CC4)ncc3Cl)ccc2n(C(C)C)c1=O (stereo not shown) [compound 462, 3-[1-({1-[5-chloro-4-({3-[(methylcarbamoyl)methoxy]-2-oxo-1-(propan-2-yl)-1,2-dihydroquinolin-6-yl}amino)pyrimidin-2-yl]piperidin-4-yl}methyl)piperidin-4-yl]-N-(2,6-dioxopiperidin-3-yl)-2-fluoro-5-methoxybenzamide] | ≥ 100 | ≥ 70 | –
5 | CNC(=O)COc1cc2cc(Nc3nc(N4CCC(CN5CCC6(C5)CN(c5cccc7c5C(=O)N(C5CCC(=O)NC5=O)C7=O)C6)CC4)ncc3Cl)ccc2n(C(C)C)c1=O (stereo not shown) [compound 502, 2-{[6-({5-chloro-2-[4-({2-[2-(2,6-dioxopiperidin-3-yl)-1,3-dioxo-2,3-dihydro-1H-isoindol-4-yl]-2,6-diazaspiro[3.4]octan-6-yl}methyl)piperidin-1-yl]pyrimidin-4-yl}amino)-2-oxo-1-(propan-2-yl)-1,2-dihydroquinolin-3-yl]oxy}-N-methylacetamide] | < 10 | 50 to 70 | –
6 | CC(=O)COc1cc2cc(Nc3nc(N4CCN(CCCN5CCN(c6ccc7c(c6)C(=O)N(C6CCC(=O)NC6=O)C7=O)CC5)CC4)ncc3Cl)ccc2n(C)c1=O (stereo not shown) [compound 236, 5-(4-(3-(4-(5-chloro-4-((1-methyl-2-oxo-3-(2-oxopropoxy)-1,2-dihydroquinolin-6-yl)amino)pyrimidin-2-yl)piperazin-1-yl)propyl)piperazin-1-yl)-2-(2,6-dioxopiperidin-3-yl)isoindoline-1,3-dione] | – | 50 to 70 | EC50 (BCL6 [1]): < 10 nM; IC50 (BCL6 [2]): 10 to 50 nM
7 | CNC(=O)COc1cc2cc(Nc3nc(N4CCC(CN5CCC6(CC5)CCN(c5ccc7c(c5)C(=O)N(C5CCC(=O)NC5=O)C7=O)C6)CC4)ncc3Cl)ccc2n(C(C)C)c1=O (stereo not shown) [compound 489, 2-{[6-({5-chloro-2-[4-({2-[2-(2,6-dioxopiperidin-3-yl)-1,3-dioxo-2,3-dihydro-1H-isoindol-5-yl]-2,8-diazaspiro[4.5]decan-8-yl}methyl)piperidin-1-yl]pyrimidin-4-yl}amino)-2-oxo-1-(propan-2-yl)-1,2-dihydroquinolin-3-yl]oxy}-N-methylacetamide] | < 10 | 50 to 70 | –
